Measured values from ChEMBL document CHEMBL1201862, “PubChem BioAssay data set” (2004).
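Briefly, cells in 96-well plates were exposed to five compound concentrations for 48 h, and endpoints were estimated by linear interpolation. GI50 = concentration required for 50% inhibition of growth.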 Active and inactive are the calls of the source. Cut-off read from the data, not from the text of the source: active = GI50 up to about 1.1 µM and inactive = higher.

Legend:
Assay in all cases: NCI-60 cell line screen, 48 h
786-0 = tested on: 786-0
A549 = tested on: A549
EKVX = tested on: EKVX
HCT-15 = tested on: HCT-15
HL-60 = tested on: HL-60
HOP-62 = tested on: HOP-62
KM12 = tested on: KM12
LOX IMVI = tested on: LOX IMVI
MOLT-4 = tested on: MOLT-4
Malme-3M = tested on: Malme-3M
NCI-H23 = tested on: NCI-H23
NCI-H522 = tested on: NCI-H522
SF-268 = tested on: SF-268
SK-MEL-2 = tested on: SK-MEL-2
SNB-19 = tested on: SNB-19
SNB-75 = tested on: SNB-75
SW-620 = tested on: SW-620
UACC-62 = tested on: UACC-62
UO-31 = tested on: UO-31
IGROV-1 = tested on: IGROV-1

Row | SMILES | GI50 (786-0) | GI50 (A549) | GI50 (EKVX) | GI50 (HCT-15) [µM] | GI50 (HL-60) | GI50 (HOP-62) | GI50 (KM12) | GI50 (LOX IMVI) | GI50 (MOLT-4) | GI50 (Malme-3M) | GI50 (NCI-H23) | GI50 (NCI-H522) | GI50 (SF-268) | GI50 (SK-MEL-2) | GI50 (SNB-19) | GI50 (SNB-75) | GI50 (SW-620) | GI50 (UACC-62) | GI50 (UO-31) | GI50 (IGROV-1)
1 | CN[C@@H]1C[C@H]2O[C@@](C)([C@@H]1OC)n1c3ccccc3c3c4c(c5c6ccccc6n2c5c31)C(=O)N[C@@H]4O | 0.0266 µM (active) | 0.0278 µM (active) | 0.0183 µM (active) | 0.209 | 0.0877 µM (active) | < 0.0134 µM (active) | 0.0328 µM (active) | 0.0331 µM (active) | 0.0259 µM (active) | 0.0175 µM (active) | 0.0338 µM (active) | 0.0484 µM (active) | 0.0408 µM (active) | 0.0145 µM (active) | 0.12 µM (active) | < 0.0121 µM (active) | 0.0764 µM (active) | 0.0282 µM (active) | < 0.0151 µM (active) | –
2 | COc1cccc(C2c3cc4c(cc3OC(N3CCCC3)C2C)OCO4)c1O (stereo not given) | 4.89 µM (inactive) | 5.83 µM (inactive) | 9.68 µM (inactive) | 3.72 | 11.3 µM (inactive) | 7.52 µM (inactive) | 3.03 µM (inactive) | 5.56 µM (inactive) | 6.7 µM (inactive) | 6.17 µM (inactive) | 4.08 µM (inactive) | 4.44 µM (inactive) | 5.97 µM (inactive) | 4.14 µM (inactive) | 7.6 µM (inactive) | 2.4 µM (inactive) | 3.74 µM (inactive) | 4.33 µM (inactive) | 8.26 µM (inactive) | 7.14 µM (inactive)
3 | COc1ccc(/C=C/c2ccnc3ccccc23)c(OC)c1 | 9.25 µM (inactive) | > 10 µM (inactive) | 5.19 µM (inactive) | 6.49 | 3.61 µM (inactive) | > 10 µM (inactive) | 6 µM (inactive) | 7.71 µM (inactive) | 4.54 µM (inactive) | 5.69 µM (inactive) | – | 6.62 µM (inactive) | > 10 µM (inactive) | 8.51 µM (inactive) | > 10 µM (inactive) | 4.23 µM (inactive) | 5.94 µM (inactive) | 5.16 µM (inactive) | > 10 µM (inactive) | 7.87 µM (inactive)
4 | CCOC(=O)Cn1sc2ncc([N+](=O)[O-])cc2c1=O | 16.9 µM (inactive) | 19.3 µM (inactive) | 27.9 µM (inactive) | 16.4 | 8.15 µM (inactive) | 15.4 µM (inactive) | 18.5 µM (inactive) | 13.6 µM (inactive) | 2.86 µM (inactive) | 17.9 µM (inactive) | 17.9 µM (inactive) | 18.8 µM (inactive) | 24.5 µM (inactive) | 22.2 µM (inactive) | – | 39.5 µM (inactive) | 16.1 µM (inactive) | 23 µM (inactive) | 10.1 µM (inactive) | 13.2 µM (inactive)
5 | Nc1nc(S)nc(C(=O)Nc2nccs2)c1-c1ccccc1 | > 100 µM (inactive) | > 100 µM (inactive) | > 100 µM (inactive) | > 100 | > 100 µM (inactive) | > 100 µM (inactive) | > 100 µM (inactive) | > 100 µM (inactive) | > 100 µM (inactive) | > 100 µM (inactive) | > 100 µM (inactive) | > 100 µM (inactive) | > 100 µM (inactive) | > 100 µM (inactive) | > 100 µM (inactive) | > 100 µM (inactive) | > 100 µM (inactive) | > 100 µM (inactive) | > 100 µM (inactive) | > 100 µM (inactive)
6 | C=CC(=O)c1ccc2c(c1)OCCOCCOCCOCCOCCO2 | 16.1 µM (inactive) | > 100 µM (inactive) | 24 µM (inactive) | 21.6 | > 58.6 µM (inactive) | > 100 µM (inactive) | > 100 µM (inactive) | 17.7 µM (inactive) | 38.1 µM (inactive) | 18.5 µM (inactive) | > 44.4 µM (inactive) | 9.48 µM (inactive) | > 55.6 µM (inactive) | 30.5 µM (inactive) | > 100 µM (inactive) | > 49.3 µM (inactive) | 18.8 µM (inactive) | 30.3 µM (inactive) | 26.2 µM (inactive) | > 100 µM (inactive)
7 | c1ccc(P(=C2c3ccccc3-c3ccccc32)(c2ccccc2)c2ccccc2)cc1 | 4.68 µM (inactive) | 7 µM (inactive) | 5.58 µM (inactive) | 5.02 | 1.8 µM (inactive) | 1.69 µM (inactive) | 2.24 µM (inactive) | 2.83 µM (inactive) | – | 3.08 µM (inactive) | 2.45 µM (inactive) | 1.6 µM (inactive) | 7.19 µM (inactive) | 5.35 µM (inactive) | 4.67 µM (inactive) | 28.1 µM (inactive) | 3.37 µM (inactive) | 3.46 µM (inactive) | 8.87 µM (inactive) | 6.7 µM (inactive)
8 | O=C1/C(=N\O)C2CCC1C2 (stereo not given) | > 100 µM (inactive) | > 100 µM (inactive) | > 100 µM (inactive) | > 100 | > 100 µM (inactive) | > 100 µM (inactive) | > 100 µM (inactive) | > 100 µM (inactive) | > 100 µM (inactive) | > 100 µM (inactive) | > 100 µM (inactive) | > 100 µM (inactive) | > 100 µM (inactive) | > 100 µM (inactive) | > 100 µM (inactive) | > 100 µM (inactive) | > 100 µM (inactive) | > 100 µM (inactive) | > 100 µM (inactive) | > 100 µM (inactive)
9 | CCOC(=O)C(C)Sc1nnc(COc2ccc(Cl)cc2)n1-c1ccccc1 (stereo not given) | 29.6 µM (inactive) | 43.7 µM (inactive) | 24.6 µM (inactive) | 14.7 | 18.5 µM (inactive) | 21.4 µM (inactive) | 21 µM (inactive) | 14.3 µM (inactive) | – | 25.8 µM (inactive) | 20.1 µM (inactive) | 1.82 µM (inactive) | 18.3 µM (inactive) | 13.4 µM (inactive) | 19.3 µM (inactive) | 30.6 µM (inactive) | 14.2 µM (inactive) | 17.3 µM (inactive) | 14.7 µM (inactive) | 26.8 µM (inactive)
10 | CS(=O)(=O)OCCCOS(C)(=O)=O | > 100 µM (inactive) | > 100 µM (inactive) | > 100 µM (inactive) | > 100 | > 100 µM (inactive) | > 100 µM (inactive) | > 100 µM (inactive) | > 100 µM (inactive) | > 100 µM (inactive) | > 100 µM (inactive) | > 100 µM (inactive) | > 100 µM (inactive) | > 100 µM (inactive) | > 100 µM (inactive) | > 100 µM (inactive) | > 100 µM (inactive) | > 100 µM (inactive) | > 100 µM (inactive) | > 100 µM (inactive) | > 100 µM (inactive)
11 | Cn1c(=O)c2c(ncn2CCCCOc2ccc3c(c2)[n+]([O-])nc(N)[n+]3[O-])n(C)c1=O | 29 µM (inactive) | 65.6 µM (inactive) | 28.7 µM (inactive) | 65.2 | 34.9 µM (inactive) | 22.7 µM (inactive) | 32.6 µM (inactive) | 30.7 µM (inactive) | 25.4 µM (inactive) | 21.1 µM (inactive) | 12.4 µM (inactive) | 16.4 µM (inactive) | 32.9 µM (inactive) | 28.9 µM (inactive) | 31.1 µM (inactive) | 27.9 µM (inactive) | 39.6 µM (inactive) | 17.1 µM (inactive) | > 100 µM (inactive) | 15.7 µM (inactive)
